# Measurements taken from PMC7504770, “Mechanistic Insights into the Chaperoning of Human Lysosomal-Galactosidase Activity: Highly Functionalized Aminocyclopentanes and C-5a-Substituted Derivatives of 4-epi-Isofagomine” (Molecules, 2020).
# Legend:
# [1] = target: T1, recombinant human lysosomal β-glucocerebrosidase (GCase, GH30) (Homo sapiens, UniProt P04062); assay: Ki determination, GCase (β-glucocerebrosidase); assay type: biochemical; conditions: 37 °C, pH 7, substrate 2,4-DNP β-Glc
# T1 sequence (P04062 40-536): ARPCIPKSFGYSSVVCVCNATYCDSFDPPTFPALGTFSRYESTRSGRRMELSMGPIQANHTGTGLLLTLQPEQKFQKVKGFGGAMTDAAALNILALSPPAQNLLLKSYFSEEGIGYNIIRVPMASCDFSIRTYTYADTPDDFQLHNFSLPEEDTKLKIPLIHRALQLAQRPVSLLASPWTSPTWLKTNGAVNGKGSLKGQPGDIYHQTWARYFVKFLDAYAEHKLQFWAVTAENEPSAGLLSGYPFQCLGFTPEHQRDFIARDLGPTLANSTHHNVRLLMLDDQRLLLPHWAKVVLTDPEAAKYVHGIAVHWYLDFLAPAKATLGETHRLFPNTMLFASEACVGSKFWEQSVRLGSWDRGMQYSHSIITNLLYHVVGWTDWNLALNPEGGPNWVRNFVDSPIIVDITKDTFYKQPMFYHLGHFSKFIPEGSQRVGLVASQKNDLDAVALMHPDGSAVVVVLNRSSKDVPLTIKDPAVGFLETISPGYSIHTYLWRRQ
# Experimental: Kinetic studies were performed at 37 °C in an appropriate buffer (specific conditions depicted below). In a typical assay, the enzyme was incubated with different inhibitor concentrations for up to 5 min before initiating the reaction by the addition of substrate. The initial reaction rate was measured by monitoring the increase in absorbance at 400 nm for up to ten minutes using a Cary4000 (Varian, Palo Alto, CA, USA). Ki determinations were performed using at least two different substrate concentrations. For each inhibitor, a range of four to six inhibitor concentrations bracketing the ultimately determined Ki value was used for each substrate concentration. Dixon plots (1/v vs. [I]) were constructed to validate the use of competitive inhibition model. The data were then fit using non-linear regression analysis with Grafit 7.0 [Erithacus Software, UK].
# n.i. stands for no inhibition or weak inhibition with an estimated Ki value higher than 1 mM.
# GCase (β-glucocerebrosidase): 20 mM sodium citrate, 50 mM sodium phosphate, 1.0 mM tetrasodium EDTA, 0.25% v/v Triton X-100® and 0.25% w/v taurocholic acid buffer (pH 7). Substrate: 2,4-DNP β-Glc, Km = 2.7 mM.
# [2] = target: T2, human lysosomal acid β-galactosidase (GH35) (Homo sapiens, UniProt P16278); assay: IC50, modified β-Gal assay in normal fibroblast homogenate; assay type: biochemical; conditions: for IC50: normal fibroblasts, 4-methylumbelliferyl-β-D-galactopyranoside, pH 4.0, read-out: β-Gal human lys. (GH35)
# T2 construct: endogenous in cells; host or cells: normal human skin fibroblasts (homogenate)
# T2 sequence (P16278 29-677): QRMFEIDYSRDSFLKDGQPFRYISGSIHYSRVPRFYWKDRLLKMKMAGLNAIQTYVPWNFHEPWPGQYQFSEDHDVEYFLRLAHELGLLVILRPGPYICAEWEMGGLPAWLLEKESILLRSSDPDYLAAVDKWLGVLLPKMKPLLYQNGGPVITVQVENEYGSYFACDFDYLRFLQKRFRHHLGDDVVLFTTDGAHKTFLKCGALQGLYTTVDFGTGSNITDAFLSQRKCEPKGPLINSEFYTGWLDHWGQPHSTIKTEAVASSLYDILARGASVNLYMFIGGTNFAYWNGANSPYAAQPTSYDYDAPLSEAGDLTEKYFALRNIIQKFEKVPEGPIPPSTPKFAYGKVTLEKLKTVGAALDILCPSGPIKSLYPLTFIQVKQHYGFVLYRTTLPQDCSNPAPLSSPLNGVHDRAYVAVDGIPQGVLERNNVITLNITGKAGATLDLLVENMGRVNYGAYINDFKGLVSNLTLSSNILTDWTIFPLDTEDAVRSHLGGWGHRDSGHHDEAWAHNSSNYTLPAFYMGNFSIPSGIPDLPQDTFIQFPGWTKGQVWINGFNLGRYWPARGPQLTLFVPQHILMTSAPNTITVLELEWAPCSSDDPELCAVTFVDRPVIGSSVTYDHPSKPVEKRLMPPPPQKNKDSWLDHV
# Experimental: Human β-galactosidase and β-hexosaminidase activity measurements were performed in duplicate assays, unless otherwise stated. Fibroblast cells were harvested by trypsinization in 0.9% NaCl containing 0.01% Triton, homogenized by sonication (3 × 10 s, Sonifier Bandelin Sonopuls, Bandelin, Berlin, Germany) and centrifuged at 13,000 rpm for 2 min in a table top centrifuge (Biofuge Pico, Heraeus, Hanau, Germany). Protein amounts were determined according to the method of Lowry.
# For assessment of β-Gal activity, 20 µL of cell homogenate were mixed with 100 µL of 0.5 mM 4-methylumbelliferyl-β-D-galactopyranoside (Sigma-Aldrich, St. Louis, MO, USA), in 100 mM citrate buffer (pH 4.0) containing 100 mM NaCl and 0.02% NaN3. After incubation at 37 °C for 30 min, the reaction was stopped by adding 2.5 mL 400 mM glycine/NaOH (pH 10.4).
# Modified β-Gal assays were used to estimate the half maximal inhibitory concentration (IC50) of the particular chaperone. For IC50 determination, 0.001 to 100 µM of chaperone was added to the assay mixture. Activity was measured in normal fibroblasts. Data analysis was performed with Microcal™ Origin® v6.0 (Origin Lab, Northampton, MA, USA) using a non-linear curve fitting module based on sigmoid curve fitting.
# Potential chaperones were dissolved in DMSO and diluted in 10 mM phosphate buffer (pH 7.0) containing 100 mM NaCl, 0.01% NaN3, and 0.01% Triton for the IC50-measurements and in MEM for the in-vivo tests. The total DMSO concentration in the media was less than 1% and had no effect on β-Gal activity or cell viability.
Compound,Ki [1] [nM],IC50 [2] [nM],"fold weaker binding than 17, human lysosomal β-galactosidase ([2]; compared with hydroxylated inhibitor 17)"
"CCCCCCCCNC1C=C(CO)C(O)C(O)C1O (stereo not drawn) [Compound 1, N-octyl-epi-valienamine]",83000,510,–
CCCCCCCCN[C@H]1[C@H](O)[C@@H](O)[C@@H](O)[C@H]1CO [Compound 16],63.9,420,–
CN(C)c1cccc2c(S(=O)(=O)NCCCCCC[C@H]3NC[C@@H](O)[C@@H](O)[C@H]3CO)cccc12 [Compound 22],3,94,–
"CN(C)c1cccc2c(S(=O)(=O)NCCCCCCN[C@H]3C[C@@H](O)[C@@H](O)[C@H]3CO)cccc12 [Compound 31, (1R,2S,3R,4S)-3-Hydroxymethyl-4-(6′-dansylaminohexylamino)cyclopentane-1,2-diol]",22600,82500,–
"CN(C)c1cccc2c(S(=O)(=O)NCCCCCCN[C@H]3[C@H](F)[C@@H](O)[C@@H](O)[C@H]3CO)cccc12 [Compound 37, (1S,2S,3S,4R,5R)-4-(6′-Dansylaminohexyl)amino-3-fluoro-5-hydroxymethylcyclopentane-1,2-diol]",3000,34900,approx. 90 fold
